Data from patent US7507716B2, “Method for treating pain with prolactin antagonists” (Board of Regents, The University of Texas System, priority 2005, dated 2009).

How the values were obtained:
[1] = Plasma estradiol levels after s.c. estradiol benzoate; type: in vivo, rat; conditions: OVX rats, mean±SEM
TG neurons [2] = assay: PRL release from cultured TG neurons (RIA); type: cell-based, rat; conditions: 300 nM capsaicin or 25 mM KCl; for release of immunoreactive PRL: neurons from OVX rats cultured in the absence of E2; for PRL released from TG neurons: neurons of proestrous rats cultured with 50 nM E2, 15 min
Method: PRL is known to be released from cells of the anterior pituitary (Zacur et al. 1976) and from extrapituitary sites (Ben-Jonathan et al., 2002; Zinger et al., 2003; Torner et al., 2004). To determine whether PRL protein is present in a releasable pool in TG sensory neurons, cultured TG neurons derived either from proestrous rats (cultured in the presence of 50 nM E2) or from OVX rats (cultured without E2) were exposed to 300 nM capsaicin or 25 mM KCl buffer. The results obtained from these experiments are depicted in FIG. 2D, which indicate that a substantial amount of PRL is released from TG neurons of proestrous rats cultured in the presence of E2 upon stimulation with either capsaicin (158±12% of vehicle) or KCL (154±16% of vehicle). […] Data are presented as mean % of basal release±SEM (n=6/group, *=p<0.05 and **=p<0.01; one-way ANOVA with Bonferroni's post hoc test).
Rat trigeminal ganglia (TG) primary cultures: The TG from ovariectomized or intact female rats were quickly removed after decapitation and neuronal cultures were prepared as previously described (Fehrenbacher et al., 2005; Patwardhan et al., 2005). The trypsin treatment was omitted in TG cultures prepared for electrophysiological recording and Ca^2+ imaging. Cells were plated on 24 well Poly-D-Lysine coated plates (for iCGRP experiments), 6 well Poly-D-Lysine plates (for PRL release experiments), Poly-D-Lysine/laminin-coated coverslips (for single cell studies) or 10 cm plates (for phosphorylation experiments), respectively. The TG cultures were maintained at 37° C. and 5% CO2. […] The media were replaced at the end of 24 h and then 48 h later.
PRL Release Experiments: These experiments were performed at day 5 with TG cultures from OVX or intact female rats using Krebs buffer (NaCl 135 mM, KCl 3.5 mM, MgCl2 1 mM, NaH2PO4 1 mM, CaCl2 2.5 mM, BSA 0.1%, dextrose 3.3 mM, ascorbic acid 0.1 mM, HEPES 10 mM, thiorphan 16 μM; pH 7.4). After two initial washes, a 15 min baseline sample was collected. Cells were then exposed to 300 nM capsaicin (Sigma) or 25 mM KCl and incubated at 37° C. for an additional 15 min followed by collection of the samples. The 1 ml collected samples were lyophilized and resuspended in 250 ul of water and immediately frozen in −80° C. Frozen samples were sent to Dr. A. F. Parlow (NHPP, Harbor-UCLA) to have levels of PRL determined by a well-validated radioimmunoassay (RIA) with sensitivity range from 1-100 ng/ml. Results are representative of 6 independent experiments.

PRL-R [3] = biological target: T1, PRL-R (Rattus norvegicus, UniProt P05710); assay: Calcium imaging, block of PRL potentiation by PRL-R antagonist; type: cell-based; conditions: for block of PRL potentiation of capsaicin-evoked Ca2+ influx: antagonist 800 nM co-treated with PRL 40 nM, capsaicin 30 nM
T1 construct: endogenous in cells; host or cells: primary rat trigeminal ganglion neurons
T1 sequence (P05710 20-610): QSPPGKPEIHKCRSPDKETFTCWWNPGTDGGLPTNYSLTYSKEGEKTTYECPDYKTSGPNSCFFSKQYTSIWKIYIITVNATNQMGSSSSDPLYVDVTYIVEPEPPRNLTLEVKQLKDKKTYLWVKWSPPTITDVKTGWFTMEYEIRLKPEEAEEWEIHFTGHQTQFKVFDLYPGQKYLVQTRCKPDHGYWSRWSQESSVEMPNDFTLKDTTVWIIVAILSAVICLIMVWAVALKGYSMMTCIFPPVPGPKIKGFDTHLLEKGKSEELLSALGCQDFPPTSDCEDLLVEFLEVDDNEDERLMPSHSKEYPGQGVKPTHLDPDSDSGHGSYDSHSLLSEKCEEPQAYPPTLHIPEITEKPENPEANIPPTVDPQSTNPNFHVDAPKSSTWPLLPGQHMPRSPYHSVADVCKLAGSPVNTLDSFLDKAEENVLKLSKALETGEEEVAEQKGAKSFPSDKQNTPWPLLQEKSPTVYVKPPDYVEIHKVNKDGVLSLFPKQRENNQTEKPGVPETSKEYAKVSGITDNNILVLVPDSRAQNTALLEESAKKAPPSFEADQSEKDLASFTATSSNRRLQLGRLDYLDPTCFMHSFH
Method: To determine whether PRL augmentation of capsaicin responses occurs through the PRL-R (i.e., whether PRL-signaling could account for the observed effects of PRL on nociceptors sensitization), Ca^2+ imaging experiments were performed on neurons in the presence of a molar excess of a full PRL-R antagonist (Δ 1-9-G129R-hPRL) (Bernichtein et al., 2003; Goffin et al., 2005). Cultured neurons were treated as described in the previous experiment. In addition, neurons were co-treated with PRL and the PRL-R antagonist 1-9-Δ-G 129R-hPRL (800 nM). […] Data are presented as mean % of vehicle±SEM (n=19-40, *=p<0.05; two-way ANOVA).
Calcium Imaging: TG cells cultured on coverslips were loaded with the cell-permeable calcium sensitive dye FURA 2-AM (1 ug/ml) (Molecular Probes, Eugene, Oreg.) for 30 min at 37° C. in Standard External Solution (SES) of the following composition in mM: 140 NaCl, 5 KCl, 2 CaCl2, 1 MgCl2, 10 glucose and 10 HEPES, pH 7.4. Coverslips containing cells were placed in a chamber with constant infusion of SES. Images were captured by a Nikon Eclipse TE-2000 microscope fitted with a 20×/NA 0.75 Fluor objective. Fluorescence images were collected in 5 sec intervals throughout the experiment, analyzed, and the F340/F380 ratio calculated by the Methafluor Software (MethaMorph, Web Universal Imaging Corporation, Downingtown, Pa.). Capsaicin was delivered locally to the cells, whereas PRL was delivered into the bath solution. The magnitude of calcium influx was determined by subtracting the averaged baseline 30 sec prior to the capsaicin stimulus from the peak achieved by the capsaicin stimulation for each cell (ratiometric method, ΔF340/F380).

PRL-R [4] = biological target: T1, PRL-R; assay: Patch clamp Icap, G129R-PRL against PRL sensitization; type: cell-based
Method: (§1) Patch Clamp Electrophysiology: All recordings were performed in whole-cell voltage-clamp (Vh=−60 mV) configuration. Recordings were acquired at 22-24° C. from the somata of neurons (15-45 pF) using an Axopatch200B amplifier and pCLAMP9.0 software (Axon Instruments, Union City, Calif.). Data were filtered at 0.5 kHz and sampled at 2 kHz. Borosilicate pipettes (Sutter, Novato, Calif.) were polished to resistances of 3-5 MΩ in pipette solution. Access resistance was compensated (40-80%) to 7-10 MΩ values when appropriate. Cell diameters were calculated using d=√[100*Cm/π], where d (μm) is cell diameter and Cm (pF) is membrane capacitance.
Since it is possible that this effect is observed only in full PRL-R antagonists, it is of interest to determine the effectiveness of partial PRL-R antagonists in blocking PRL-mediated nociceptor sensitization. To this end, the ability of the partial PRL […] (G129R-PRL) to inhibit PRL-induced increase in sensitivity to capsaicin was assessed. FIG. 10 summarizes the effect of administering PRL, human G129R-PRL, or their combination, on Icap. G129R-PRL acts as either a partial or full antagonist, depending on the cellular context of the experimental system (Goffin, Bernichtein et al. 2003).

TG neurons [5] = assay: Patch clamp, capsaicin-induced currents (Icap); type: cell-based, rat
Method: Since application of PRL rapidly increases capsaicin-induced calcium accumulation and neuropeptide release, the role of PRL in modulating capsaicin-induced currents (Icap) was examined. TRPV1 desensitization of cultured TG neurons was induced through the repeated application of 100 nM capsaicin to the cultures (Vellani et al., 2001; Bonnington and McNaughton, 2003). The sub-maximal concentration of capsaicin used was effective in inducing desensitization and permitted the investigation PRL-evoked re-sensitization or further sensitization of TRPV1. […] Data are presented as mean±SEM of PRL-treated ΔIcap (3rd Icap-2^ndIcap) normalized to vehicle treated ΔIcap, (n=8-12/group, *=p<0.05 and **=p<0.01; two-way ANOVA). […] Acutely dissociated TG neurons from female rats were locally pretreated with vehicle or PRL (40 nM) for 60 sec, washed for 60 sec and subjected to a single capsaicin pulse (40 sec, 0.1 nM-5 μM). Data are shown as mean±SEM (n=12-20/group, *=p<0.05 and ***=p<0.001 vehicle vs. PRL; two-way ANOVA). FIGS. 5C and 5D depict representative traces of Icap recordings from intact (FIG. 5C) and OVX (FIG. 5D) female rat TG neurons. Concentration of applied CAP and PRL are indicated. The duration CAP and PRL treatment was 30 sec and 60 sec, respectively. The magnitude of the second capsaicin-evoked inward currents (Icap) peak was subtracted from the third Icap peak to calculate the difference (ΔIcap). Data were normalized to the vehicle treated ΔIcap.
as §1
Standard external solution (SES) had the composition as described above. […] Drugs were applied using a fast, computer controlled pressure-driven 8-channel system (ValveLink8; AutoMate Scientific, San Francisco, Calif.).
FIG. 11B summarizes the effect of adding rhPRL on Icap of cultured TG neurons from male, female and OVX female rats. Number of recorded neurons and neurons in which effects were observed are indicated above the bars. The recordings were performed in whole-cell voltage clamp c(Vh=−60 mV) configuration. Solutions are SES and SIS.

Molecule: C[C@]12CC[C@@H]3c4ccc(OC(=O)c5ccccc5)cc4CC[C@H]3[C@@H]1CC[C@@H]2O [17-beta-estradiol 3-benzoate]
- plasma estradiol levels ([1]; 2 μg/kg s.c. daily for 10 days): 1.89 ± 0.36 pg/mL
- plasma estradiol levels ([1]; 20 μg/kg s.c. daily for 10 days): 59 ± 17.1 pg/mL
- plasma estradiol levels ([1]; 80 μg/kg s.c. daily for 10 days): 110 ± 36.6 pg/mL

Molecule: [Cl-].[K+] [KCL, KCl]
- release of immunoreactive PRL (TG neurons [2]): no detectable release
- PRL released from TG neurons (TG neurons [2]): 154±16 % of vehicle

Molecule: COc1cc(CNC(=O)CCCC/C=C/C(C)C)ccc1O [capsaicin]
- release of immunoreactive PRL (TG neurons [2]): no detectable release
- PRL released from TG neurons (TG neurons [2]): 158±12 % of vehicle

B1: Δ 1-9-G129R-hPRL: full PRL-R antagonist, human PRL variant synthesized as described (Bernichtein et al., 2003; Goffin et al., 2005) (protein)
chain: LPICPGGAARCQVTLRDLFDRAVVLSHYIHNLSSEMFSEFDKRYTHGRGFITKAINSCHTSSLATPEDKEQAQQMNQKDFLSLIVSILRSWNEPLYHLVTEVRGMQEAPEAILSKAVEIEEQTKRLLERMELIVSQVHPETKENEIYPVWSGLPSLQMADEESRLSAYYNLLHCLRRDSHKIDNYLKLLKCRIIHNNNC
- effect of antagonist on its own on capsaicin-evoked Ca2+ influx (PRL-R [3]; 800 nM, without PRL): had no effect on its own
- block of PRL potentiation of capsaicin-evoked Ca2+ influx (PRL-R [3]): significantly blocked PRL potentiation of capsaicin-evoked Ca^2+ influx
- block of PRL potentiation of capsaicin-evoked Ca2+ influx (PRL-R [3]; listed as 1-9-Δ-G129R-hPRL): significantly blocked

B2: G129R-PRL: human prolactin variant, partial or full PRL-R antagonist / partial agonist; sequence in FIG. 9B (SEQ ID NO: 48) (protein, listed as Homo sapiens)
chain: LPICPGGAARCQVTLRDLFDRAVVLSHYIHNLSSEMFSEFDKRYTHGRGFITKAINSCHTSSLATPEDKEQAQQMNQKDFLSLIVSILRSWNEPLYHLVTEVRGMQEAPEAILSKAVEIEEQTKRLLERMELIVSQVHPETKENEIYPVWSGLPSLQMADEESRLSAYYNLLHCLRRDSHKIDNYLKLLKCRIIHNNNC
- effect on Icap in the absence of rPRL (PRL-R [4]; 3 of 3 examined neurons): displayed partial agonist effects
- reduction of the PRL effect on Icap (PRL-R [4]; G129R-PRL 16 nM co-applied with rPRL 4 nM, observed in 6 of 7 neurons): about 40%

B3: rhPRL: recombinant human PRL (protein, UniProt P01236 29-227, looked up)
Prolactin: LPICPGGAARCQVTLRDLFDRAVVLSHYIHNLSSEMFSEFDKRYTHGRGFITKAINSCHTSSLATPEDKEQAQQMNQKDFLSLIVSILRSWNEPLYHLVTEVRGMQEAPEAILSKAVEIEEQTKRLLEGMELIVSQVHPETKENEIYPVWSGLPSLQMADEESRLSAYYNLLHCLRRDSHKIDNYLKLLKCRIIHNNNC
- sensitization of capsaicin-evoked Icap (TG neurons [5]; cultured TG neurons from male and female rats, capsaicin 100 nM (FIG. 11A)): is able to sensitize cultured neurons isolated from male and female TG neurons
- concentration dependence of Icap increase (TG neurons [5]; male and female TG neurons, varying rhPRL concentrations): dose-dependent increases in Icap
